Laboratory results from patent publication US8956868B2, “Induced pluripotent stem cells produced with a connexin inhibitor and a TGF-β signaling inhibitor” (LSIP, LLC, priority 2010, dated 2015).

System: cardiomyocytes derived from neonatal mouse ventricles
Assay: Reprogramming of cardiomyocytes into iPS cells (selective culture in mouse ES medium)
Type: cell-based
Conditions: ES medium containing both 10 μM SB-431542 and 100 nM siRNA Cx43 (combination); after about two weeks; cardiomyocytes seeded at 2×10^5 cells
Experimental: Two-day-old neonatal C57BL/6 or C57BL/6-Tg (CAG-EGFP) mouse hearts including ventricles were minced into approximately 2-mm cubes with dissecting scissors by a conventional method. They were treated with 0.2% collagenase (type II; Worthington Biochemical Corp. U.S.; dissolved in PBS) to dissociate cardiomyocytes. The dissociated cardiomyocytes were centrifuged, and incubated for 45 minutes in DMEM containing 10% FBS at 37° C. with 5% CO2. After the incubation, the supernatant was further incubated under the same conditions. This process was repeated four times. Thus, fibroblasts were removed, and the cardiomyocytes were isolated,
The cardiomyocytes were seeded at 2×10^5 cells in a 6-cm dish, and cultured in the above DMEM medium. After culturing for 1 week, the medium used for culturing the cardiomyocytes was switched from the above DMEM medium to mouse ES media containing 15% FBS and also containing either a TGF-β receptor inhibitor SB-431542 (10 μM; Tocris, USA), siRNA Cx43 (100 nM), or both compounds, to select the reprogrammed cells. […]

Compound | iPS cell colonies obtained
NC(=O)c1ccc(-c2nc(-c3ccc4c(c3)OCO4)c(-c3ccccn3)[nH]2)cc1 [SB-431542] | Two
siRNA Cx43: mouse Cx43 siRNA; sense 5′-CAAUUCCUCCUGCCGCAATT-3′, antisense 5′-UUGCGGCAGGAGGAAUUGTT-3′ (sense CAAUUCCUCCUGCCGCAATT; antisense UUGCGGCAGGAGGAAUUGTT; chemistry not given here) | Two
